Reference: ChEMBL document CHEMBL1201862, “PubChem BioAssay data set” (2004)
Calls of active or inactive are those of the source.

Key:
[1] = biological target: Voltage-dependent T-type calcium channel subunit alpha-1H (Homo sapiens, UniProt O95180); experiment: inhibition of CACNA1H calcium flux – cell-based, SynthLib3 library, HEK293 Cav3.2, fluorescence (AID 493041); format: functional
[2] = viability loss in HEK293 cells – cell-based, plate reader, cherry-picked samples, cytotoxicity control, dose response (AID 743446); format: functional
[3] = Luminescence Cell-Based Dose Retest to Confirm Inhibitors of Cancer Stem Cells. [Related pubchem assays (depositor defined):AID2717, AID2721]; format: functional; details: Homo sapiens
[4] = toxicity toward HepG2 liver cells – cell-based, plate reader, cherry-pick, antagonist series, cytotoxicity control, dose response (AID 743416); format: functional
[5] = blockade of melanocortin 4 receptor signaling – cell-based, plate reader, cherry pick, counter-screen for LGR2 antagonist project, dose response (AID 743444); format: functional;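 also: transfected HEK 293 cells stimulated with alpha-MSH peptide; potency of inhibitors of the alpha-MSH evoked signal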
[6] = (§1) Late stage assay provider results from the probe development effort to identify inhibitors of Protein Phosphatase Methylesterase 1 (PME-1): luminescence-based […] dose response assay to determine cytotoxicity of inhibitor compounds. [Related pubchem assays (depositor defined):AID2130, AID2143, AID2171, AID2174, AID2177, AID2232, AID2233, AID2291, AID2363, AID2365, AID2366, AID2368, AID2369, AID2371, AID463124, AID463130, AID463131, AID463132, AID463146, AID463149] Panel member name: Serum-free Media; format: toxicity
Protein RecA = biological target: T1, Protein RecA (Mycobacterium tuberculosis, UniProt P9WHJ3); experiment: Fluorescence Cell-Free Homogeneous Dose Retest to Identify Inhibitors of RecA-Intein Splicing Activity. [Related pubchem assays (depositor defined):AID2097, AID2223, AID489010, AID492950]; format: functional
T1 sequence (P9WHJ3 whole entry): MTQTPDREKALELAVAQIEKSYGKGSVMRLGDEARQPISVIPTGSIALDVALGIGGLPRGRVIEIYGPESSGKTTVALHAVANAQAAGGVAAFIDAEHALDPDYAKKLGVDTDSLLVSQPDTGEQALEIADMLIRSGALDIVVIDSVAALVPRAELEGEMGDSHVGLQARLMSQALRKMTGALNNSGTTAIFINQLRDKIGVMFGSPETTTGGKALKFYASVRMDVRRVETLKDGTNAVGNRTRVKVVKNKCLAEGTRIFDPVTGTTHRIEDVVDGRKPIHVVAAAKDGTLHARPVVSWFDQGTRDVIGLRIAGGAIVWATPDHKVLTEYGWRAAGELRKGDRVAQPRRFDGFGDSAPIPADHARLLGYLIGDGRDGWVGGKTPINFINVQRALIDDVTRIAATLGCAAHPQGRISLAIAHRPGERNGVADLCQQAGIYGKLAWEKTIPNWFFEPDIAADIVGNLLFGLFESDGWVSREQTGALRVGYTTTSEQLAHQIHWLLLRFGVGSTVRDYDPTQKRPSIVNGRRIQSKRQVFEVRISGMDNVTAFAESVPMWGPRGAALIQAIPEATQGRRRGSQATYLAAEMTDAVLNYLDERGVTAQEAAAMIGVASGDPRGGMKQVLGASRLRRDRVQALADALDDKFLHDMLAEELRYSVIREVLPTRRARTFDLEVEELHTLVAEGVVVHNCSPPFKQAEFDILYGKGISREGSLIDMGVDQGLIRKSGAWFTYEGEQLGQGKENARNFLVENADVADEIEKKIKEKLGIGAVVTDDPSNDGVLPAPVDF

[7] = as §1, with “Fetal Calf Serum” for “Serum-free Media”; format: toxicity
[8] = blockers of bursicon-stimulated LGR2 cAMP reporter – cell-based, HEK293, CRE-luciferase reporter, cherry pick, set 2, dose response (AID 743343); format: functional;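 also: transfected cells were stimulated with diluted bursicon conditioned medium after compound addition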
[9] = biological target: T2, Replicative DNA helicase DnaB (Mycobacterium tuberculosis, UniProt P9WMR3); experiment: DnaB intein splicing inhibitors, dose response, biochemical, cell-free fluorescence (AID 449749); format: functional
T2 sequence (P9WMR3 whole entry): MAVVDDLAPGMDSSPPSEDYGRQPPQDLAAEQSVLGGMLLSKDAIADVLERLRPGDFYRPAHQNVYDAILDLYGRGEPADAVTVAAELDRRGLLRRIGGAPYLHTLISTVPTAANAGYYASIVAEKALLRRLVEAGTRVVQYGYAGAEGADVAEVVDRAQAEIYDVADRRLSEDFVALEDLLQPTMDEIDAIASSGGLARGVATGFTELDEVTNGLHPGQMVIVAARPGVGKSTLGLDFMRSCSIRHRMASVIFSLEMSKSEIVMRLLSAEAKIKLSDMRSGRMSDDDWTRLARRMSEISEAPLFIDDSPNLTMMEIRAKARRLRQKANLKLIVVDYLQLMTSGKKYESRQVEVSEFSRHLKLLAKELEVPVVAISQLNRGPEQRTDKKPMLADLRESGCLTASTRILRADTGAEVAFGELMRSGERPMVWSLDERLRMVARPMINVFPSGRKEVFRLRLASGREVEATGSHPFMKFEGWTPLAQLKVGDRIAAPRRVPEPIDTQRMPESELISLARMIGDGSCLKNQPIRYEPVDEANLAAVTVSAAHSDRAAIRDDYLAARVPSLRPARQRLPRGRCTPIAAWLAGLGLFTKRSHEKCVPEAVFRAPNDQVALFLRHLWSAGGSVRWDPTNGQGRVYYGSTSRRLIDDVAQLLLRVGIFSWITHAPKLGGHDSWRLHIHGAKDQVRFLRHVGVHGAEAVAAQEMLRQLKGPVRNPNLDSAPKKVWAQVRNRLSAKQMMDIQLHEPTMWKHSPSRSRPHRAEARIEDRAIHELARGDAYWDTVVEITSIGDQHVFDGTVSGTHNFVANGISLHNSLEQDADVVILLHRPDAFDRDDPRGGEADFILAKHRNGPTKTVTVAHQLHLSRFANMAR

[10] = A549 cell cytotoxicity, dose response, cytotoxicity control, plate reader, cherry-pick, antagonist series (AID 743412); format: functional, cell-based
HEK293 = experiment: SAR analysis of compounds that are cytotoxic to HEK293 - Set 3. [Related pubchem assays (depositor defined):AID1575, AID1578, AID1848, AID1849, AID2001, AID2333, AID2334, AID2335, AID2337, AID2469]; format: functional, cell-based; details: Homo sapiens
[11] = biological target: Glyceraldehyde-3-phosphate dehydrogenase (Homo sapiens, UniProt P04406)
Tumor necrosis factor = Tumor necrosis factor (Homo sapiens, UniProt P01375); experiment: analog potency on TNFa NF-kB signaling – cell-based, set 3, SAR follow-up (AID 2801); format: functional
Bcl-2-related protein A1 [12] = biological target: T3, Bcl-2-related protein A1 (Mus musculus, UniProt Q07440); experiment: small-molecule antagonists of Bfl-1/BH3 interaction – biochemical, TR-FRET, mouse Bfl-1, confirmation (AID 621);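 also: TR-FRET binding of GST-Bfl-1 to FITC-labelled Bid peptide via terbium antibody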
T3 sequence (Q07440 whole entry): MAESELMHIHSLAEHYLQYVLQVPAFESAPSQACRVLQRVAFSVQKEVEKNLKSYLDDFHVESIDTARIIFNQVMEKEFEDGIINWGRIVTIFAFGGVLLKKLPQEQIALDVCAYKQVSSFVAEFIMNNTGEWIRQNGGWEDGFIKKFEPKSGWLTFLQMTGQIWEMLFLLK

[13] = biological target: Nucleotide-binding oligomerization domain-containing protein 1 (Homo sapiens, UniProt Q9Y239); experiment: SAR analysis of compounds that inhibit NOD1 - Set 3. [Related pubchem assays (depositor defined):AID1566, AID1575, AID1578, AID1849, AID1852, AID2333, AID2335, AID2466]; format: functional
[14] = biological target: Nucleotide-binding oligomerization domain-containing protein 2 (Homo sapiens, UniProt Q9HC29); experiment: inhibition of MDP-driven NOD2 NF-kB reporter – cell-based, set 3, SAR follow-up (AID 2799); format: functional
Bcl-2-related protein A1 [15] = biological target: T3, Bcl-2-related protein A1; experiment: Bfl-1 binding inhibitors, SAR follow-up, biochemical, fluorescence polarization (AID 1070)
[16] = biological target: T4, G-protein coupled receptor 55 (Homo sapiens, UniProt Q9Y2T6); experiment: blockers of GPR55 signalling, imaged – imaging, image-based, counter-screen for GPR35 antagonist project, SAR follow-up (AID 2397); format: functional
Vero = experiment: mammalian cell viability reduction – secondary assay, cytotoxicity control for West Nile virus antiviral project, dose response (AID 1650); format: functional; details: Chlorocebus sabaeus
Cannabinoid receptor 1 = Cannabinoid receptor 1 (Homo sapiens, UniProt P21554); experiment: SAR analysis of antagonists of the Cannabinoid Receptor 1 using an Image-Based Assay. [Related pubchem assays (depositor defined):AID1961, AID1965]; format: functional
Cannabinoid receptor 2 [17] = biological target: T5, Cannabinoid receptor 2 (Homo sapiens, UniProt P34972); experiment: SAR analysis of antagonists of the Cannabinoid Receptor 2 using an Image-Based Assay - Set 2. [Related pubchem assays (depositor defined):AID1961, AID1965]; format: functional
[18] = biological target: T4, G-protein coupled receptor 55; experiment: SAR analysis of selective Agonists of GPR55 using an Image-Based Assay. [Related pubchem assays (depositor defined):AID1961, AID1965]; format: functional
[19] = biological target: T4, G-protein coupled receptor 55; experiment: selective activators of receptor GPR55 – imaging, U2OS cells, beta-arrestin-GFP redistribution, primary screen (AID 1961); format: functional
Cannabinoid receptor 2 [20] = biological target: T5, Cannabinoid receptor 2; experiment: SAR analysis of agonists of the Cannabinoid Receptor 2 using an Image-Based Assay - Set 2. [Related pubchem assays (depositor defined):AID1961, AID1965]; format: functional

T4 sequence (Q9Y2T6 whole entry): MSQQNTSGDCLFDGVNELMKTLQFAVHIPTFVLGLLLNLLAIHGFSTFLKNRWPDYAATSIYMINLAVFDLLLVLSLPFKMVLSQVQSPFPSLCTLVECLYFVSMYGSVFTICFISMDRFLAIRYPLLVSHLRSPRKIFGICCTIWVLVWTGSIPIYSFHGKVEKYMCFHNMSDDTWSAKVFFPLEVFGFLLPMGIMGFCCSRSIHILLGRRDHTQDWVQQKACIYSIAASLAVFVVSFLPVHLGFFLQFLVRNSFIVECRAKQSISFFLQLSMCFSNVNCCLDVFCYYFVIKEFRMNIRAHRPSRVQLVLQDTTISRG
T5 sequence (P34972 whole entry): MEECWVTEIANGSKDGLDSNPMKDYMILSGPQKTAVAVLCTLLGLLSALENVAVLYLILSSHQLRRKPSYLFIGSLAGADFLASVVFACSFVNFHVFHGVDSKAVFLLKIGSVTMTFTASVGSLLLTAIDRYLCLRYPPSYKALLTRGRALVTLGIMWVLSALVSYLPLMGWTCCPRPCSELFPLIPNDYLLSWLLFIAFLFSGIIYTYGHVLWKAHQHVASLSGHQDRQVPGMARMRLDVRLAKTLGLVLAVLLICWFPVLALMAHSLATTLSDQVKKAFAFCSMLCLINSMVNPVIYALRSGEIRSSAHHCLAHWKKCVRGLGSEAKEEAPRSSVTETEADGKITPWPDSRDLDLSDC
Nucleotide-binding oligomerization domain-containing protein 1, sequence (Q9Y239 whole entry, the tested form may be a part): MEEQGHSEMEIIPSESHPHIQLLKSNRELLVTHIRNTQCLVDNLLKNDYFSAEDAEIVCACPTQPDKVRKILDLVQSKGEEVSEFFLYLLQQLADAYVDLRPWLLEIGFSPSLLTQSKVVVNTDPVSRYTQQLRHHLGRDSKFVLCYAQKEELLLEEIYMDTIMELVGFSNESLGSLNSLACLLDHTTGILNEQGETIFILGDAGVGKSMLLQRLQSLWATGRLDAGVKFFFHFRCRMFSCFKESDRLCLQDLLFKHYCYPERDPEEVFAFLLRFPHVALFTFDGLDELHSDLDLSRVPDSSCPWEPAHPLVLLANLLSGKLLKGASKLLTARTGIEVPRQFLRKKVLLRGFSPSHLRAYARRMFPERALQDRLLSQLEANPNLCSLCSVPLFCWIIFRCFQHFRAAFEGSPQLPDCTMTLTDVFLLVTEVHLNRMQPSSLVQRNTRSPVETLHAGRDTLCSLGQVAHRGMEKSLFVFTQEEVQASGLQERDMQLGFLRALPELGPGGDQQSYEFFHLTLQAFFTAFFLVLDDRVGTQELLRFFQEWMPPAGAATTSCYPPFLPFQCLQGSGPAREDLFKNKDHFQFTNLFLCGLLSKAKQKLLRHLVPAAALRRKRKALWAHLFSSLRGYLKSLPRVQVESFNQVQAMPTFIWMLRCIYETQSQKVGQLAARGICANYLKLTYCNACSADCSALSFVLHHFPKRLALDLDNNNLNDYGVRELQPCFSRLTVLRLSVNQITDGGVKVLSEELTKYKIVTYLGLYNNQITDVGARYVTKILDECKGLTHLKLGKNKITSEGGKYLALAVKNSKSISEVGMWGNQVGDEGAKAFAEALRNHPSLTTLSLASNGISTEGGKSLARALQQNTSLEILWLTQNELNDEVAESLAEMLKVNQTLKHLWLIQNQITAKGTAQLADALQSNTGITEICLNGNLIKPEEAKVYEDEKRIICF
Voltage-dependent T-type calcium channel subunit alpha-1H, sequence (O95180 whole entry): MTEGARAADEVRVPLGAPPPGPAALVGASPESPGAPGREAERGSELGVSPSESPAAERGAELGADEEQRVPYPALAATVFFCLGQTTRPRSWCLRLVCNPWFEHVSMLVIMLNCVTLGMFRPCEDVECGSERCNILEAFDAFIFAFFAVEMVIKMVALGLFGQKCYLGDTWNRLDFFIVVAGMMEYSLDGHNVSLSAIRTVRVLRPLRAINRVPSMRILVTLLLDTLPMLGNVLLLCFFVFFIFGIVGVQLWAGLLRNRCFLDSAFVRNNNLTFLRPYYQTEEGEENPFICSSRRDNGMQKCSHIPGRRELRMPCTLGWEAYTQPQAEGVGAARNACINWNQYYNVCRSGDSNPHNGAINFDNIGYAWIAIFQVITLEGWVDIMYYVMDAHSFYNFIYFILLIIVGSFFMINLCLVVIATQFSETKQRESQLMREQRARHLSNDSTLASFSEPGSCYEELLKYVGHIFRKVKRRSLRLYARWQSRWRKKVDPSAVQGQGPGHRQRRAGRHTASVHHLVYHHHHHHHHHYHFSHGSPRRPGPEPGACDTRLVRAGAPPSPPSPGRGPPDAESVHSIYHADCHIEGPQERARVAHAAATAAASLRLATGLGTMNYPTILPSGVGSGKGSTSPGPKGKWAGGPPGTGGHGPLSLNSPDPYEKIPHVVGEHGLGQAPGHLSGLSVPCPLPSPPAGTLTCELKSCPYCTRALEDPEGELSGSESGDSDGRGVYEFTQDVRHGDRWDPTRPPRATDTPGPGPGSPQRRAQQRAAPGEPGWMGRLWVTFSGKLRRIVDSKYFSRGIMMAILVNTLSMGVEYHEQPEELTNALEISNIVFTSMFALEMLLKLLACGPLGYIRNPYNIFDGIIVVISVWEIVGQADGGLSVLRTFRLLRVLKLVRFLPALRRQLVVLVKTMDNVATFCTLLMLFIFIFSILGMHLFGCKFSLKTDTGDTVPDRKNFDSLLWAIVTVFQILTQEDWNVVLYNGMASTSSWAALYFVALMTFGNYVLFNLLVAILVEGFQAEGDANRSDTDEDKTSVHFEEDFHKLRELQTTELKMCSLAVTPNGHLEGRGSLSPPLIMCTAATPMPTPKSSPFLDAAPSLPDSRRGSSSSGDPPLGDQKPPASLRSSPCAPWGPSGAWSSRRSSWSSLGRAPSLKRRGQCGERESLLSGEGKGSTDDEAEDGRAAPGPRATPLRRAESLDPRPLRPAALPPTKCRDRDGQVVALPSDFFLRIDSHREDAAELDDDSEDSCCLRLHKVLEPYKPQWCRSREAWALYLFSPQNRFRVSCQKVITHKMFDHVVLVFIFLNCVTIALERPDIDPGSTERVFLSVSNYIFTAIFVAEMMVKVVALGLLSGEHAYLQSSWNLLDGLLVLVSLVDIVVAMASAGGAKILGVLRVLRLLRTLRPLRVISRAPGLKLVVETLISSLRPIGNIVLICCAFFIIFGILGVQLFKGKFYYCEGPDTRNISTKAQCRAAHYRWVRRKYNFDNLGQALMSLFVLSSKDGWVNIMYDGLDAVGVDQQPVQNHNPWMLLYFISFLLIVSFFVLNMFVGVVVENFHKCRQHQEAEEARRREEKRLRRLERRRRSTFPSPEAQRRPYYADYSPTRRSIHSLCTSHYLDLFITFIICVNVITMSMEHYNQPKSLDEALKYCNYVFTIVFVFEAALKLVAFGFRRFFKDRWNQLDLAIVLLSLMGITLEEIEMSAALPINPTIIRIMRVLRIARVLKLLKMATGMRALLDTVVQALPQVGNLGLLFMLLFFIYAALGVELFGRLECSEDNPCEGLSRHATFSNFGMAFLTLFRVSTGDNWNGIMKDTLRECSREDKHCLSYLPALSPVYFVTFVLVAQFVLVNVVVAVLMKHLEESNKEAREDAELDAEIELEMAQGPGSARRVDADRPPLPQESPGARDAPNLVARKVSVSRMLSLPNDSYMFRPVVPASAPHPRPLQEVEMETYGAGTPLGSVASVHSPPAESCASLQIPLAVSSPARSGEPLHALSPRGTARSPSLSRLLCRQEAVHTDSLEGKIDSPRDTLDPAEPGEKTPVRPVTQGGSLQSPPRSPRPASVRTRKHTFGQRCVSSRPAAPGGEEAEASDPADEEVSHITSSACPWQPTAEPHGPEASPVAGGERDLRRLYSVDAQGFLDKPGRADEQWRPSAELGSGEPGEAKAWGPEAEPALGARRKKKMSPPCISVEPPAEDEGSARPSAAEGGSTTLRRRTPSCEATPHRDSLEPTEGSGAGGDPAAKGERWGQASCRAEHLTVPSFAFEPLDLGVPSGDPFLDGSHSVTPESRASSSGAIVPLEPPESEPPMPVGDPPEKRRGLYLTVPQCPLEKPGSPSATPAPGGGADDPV
Nucleotide-binding oligomerization domain-containing protein 2, sequence (Q9HC29 whole entry, the tested form may be a part): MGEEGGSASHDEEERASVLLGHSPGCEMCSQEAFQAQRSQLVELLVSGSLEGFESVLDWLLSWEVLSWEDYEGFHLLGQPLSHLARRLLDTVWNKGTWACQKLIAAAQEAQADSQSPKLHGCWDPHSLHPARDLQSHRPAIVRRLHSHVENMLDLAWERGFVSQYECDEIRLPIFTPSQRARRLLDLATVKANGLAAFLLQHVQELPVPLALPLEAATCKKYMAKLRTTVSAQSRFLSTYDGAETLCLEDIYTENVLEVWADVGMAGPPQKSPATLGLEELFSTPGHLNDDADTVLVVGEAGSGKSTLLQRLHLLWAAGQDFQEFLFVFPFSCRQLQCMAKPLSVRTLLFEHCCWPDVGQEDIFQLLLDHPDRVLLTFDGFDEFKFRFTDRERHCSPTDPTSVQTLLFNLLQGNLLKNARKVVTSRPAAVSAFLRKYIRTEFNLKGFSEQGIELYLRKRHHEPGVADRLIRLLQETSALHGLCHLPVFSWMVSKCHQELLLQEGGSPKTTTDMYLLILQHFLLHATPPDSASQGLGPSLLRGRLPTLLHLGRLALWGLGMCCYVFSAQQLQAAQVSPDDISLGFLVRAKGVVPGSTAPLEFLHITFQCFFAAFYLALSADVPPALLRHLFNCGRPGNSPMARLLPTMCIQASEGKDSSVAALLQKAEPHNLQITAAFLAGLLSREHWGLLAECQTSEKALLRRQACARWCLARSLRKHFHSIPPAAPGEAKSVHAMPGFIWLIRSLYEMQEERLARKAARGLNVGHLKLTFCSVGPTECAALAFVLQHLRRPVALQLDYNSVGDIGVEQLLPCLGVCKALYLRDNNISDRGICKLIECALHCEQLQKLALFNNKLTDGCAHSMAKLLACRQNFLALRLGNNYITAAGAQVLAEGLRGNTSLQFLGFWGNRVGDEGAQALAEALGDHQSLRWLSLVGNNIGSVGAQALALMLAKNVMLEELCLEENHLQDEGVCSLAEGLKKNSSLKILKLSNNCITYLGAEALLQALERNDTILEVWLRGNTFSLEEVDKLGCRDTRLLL

In the case of `CC(C)CCc1nnc(NC(=O)COc2ccc(F)cc2Cl)o1`, the EC50 [1] is reported as 10 µM (active).
In the case of `CCOC(=O)N1C(=O)[C@@](c2ccc(Cl)cc2)(C(C)C)N1C(=O)OCC`, the AC50 [2] is reported as 49.1 µM (active), the AC50 [3] is reported as 3.99 µM (active) and the AC50 [4] is reported as 40.9 µM (active). For the same molecule, the AC50 [5] was 26.6 µM (active), the CC50 [6] was > 10 µM (inactive) and the EC50 (Protein RecA) was 16.2 µM (active). The CC50 [7] was > 10 µM (inactive), the AC50 [8] was 17.3 µM (active) and the AC50 [9] was 7.28 µM (active). For the same molecule, the AC50 [10] was 22.4 µM (active).
In the case of `COc1ccc(-c2cc(N)n(S(=O)(=O)c3ccc(F)cc3)n2)cc1OC`, the IC50 (HEK293) is reported as > 20 µM (inactive), the IC50 [11] is reported as > 100 µM (not active) and the IC50 (Tumor necrosis factor) is reported as > 20 µM (inactive). The IC50 (Bcl-2-related protein A1 [12]) was > 100 µM (not active), the IC50 [13] was > 20 µM (inactive) and the IC50 [14] was > 20 µM (inactive). The IC50 (Bcl-2-related protein A1 [15]) was > 100 µM (not active).
In the case of `O=C(CCCN1C(=O)/C(=C/c2ccccc2)SC1=S)Nc1ccc(O)cc1`, the IC50 [16] is reported as > 32 µM (inactive), the EC50 (Protein RecA) is reported as > 380 µM (inactive) and the AC50 [9] is reported as 12 µM (active). The CC50 (Vero) was 60 µM (active).
In the case of `CC(Sc1nc2cc(Cl)ccc2s1)C(=O)Nc1cccc(S(=O)(=O)N2CCOCC2)c1` (configuration not stated), the IC50 (Cannabinoid receptor 1) is reported as > 32 µM (inactive), the IC50 (Cannabinoid receptor 2 [17]) is reported as > 32 µM (inactive) and the EC50 [18] is reported as 0.761 µM (active). For the same molecule, the EC50 [19] was 0.961 µM (active) and the EC50 (Cannabinoid receptor 2 [20]) was > 32 µM (inactive).
